# Counter-ions that a name gives are not always drawn.
row,melting point,SMILES
1,250 °C (dec.),"O=C(O)c1ccc(Nc2nc(-c3ccc(NC(=O)c4ccccc4)cc3)cs2)cc1 [Example 4, 4-(4-(4-benzoylaminophenyl)-2-thiazolylamino)benzoic acid]"
2,134 to 140 °C,"O=C(O)c1ccc(Nc2nc(-c3cc(Cl)ccc3OCc3ccc(C(F)(F)F)cc3)cs2)c(OCCC2CCCCC2)c1 [Example 179, 4-(4-(5-chloro-2-(4-trifluoromethylbenzyloxy)phenyl)-2-thiazolylamino)-3-(2-cyclohexylethoxy)benzoic acid]"
3,152 to 154 °C,"CC(C)(c1ccc(C(=O)O)cc1)c1nc(-c2cc(Cl)ccc2OCc2ccccc2)cs1 [Example 149, 4-(1-(4-(2-benzyloxy-5-chlorophenyl)-2-thiazolyl)-1-methylethyl)benzoic acid]"
4,227 to 230 °C,"COc1ccc(OCc2ccc(C(F)(F)F)cc2)c(-c2csc(Nc3ccc(C(=O)O)cc3OCc3ccccc3)n2)c1 [Example 180, 3-benzyloxy-4-(4-(5-methoxy-2-(4-trifluoromethylbenzyloxy)phenyl)-2-thiazolylamino)benzoic acid]"
5,235 to 236 °C,"O=C(O)c1ccc(Nc2nc(-c3cccc(OCc4ccc(C5CCCCC5)cc4)c3)cs2)cc1 [Example 138, 4-(4-(3-(4-cyclohexylbenzyloxy)phenyl)-2-thiazolylamino)benzoic acid]"
6,220 °C,"O=C(O)c1ccc(Nc2nc(-c3nc4cc(OCc5ccc(Cl)c(Cl)c5)ccc4[nH]3)cs2)cc1 (as salt: hydrochloride) [Example 186, 4-(4-(5-(3,4-dichlorobenzyloxy)-2-benzoimidazolyl)-2-thiazolylamino)benzoic acid hydrochloride]"
7,230 to 234 °C,"COc1ccc(OCc2ccc(C3CCCCC3)cc2)c(-c2csc(Nc3ccc(C(=O)O)cc3)n2)c1 [Example 157, 4-(4-(2-(4-cyclohexylbenzyloxy)-5-methoxyphenyl)-2-thiazolylamino)benzoic acid]"
8,184 to 185 °C,"O=C(O)c1ccc(N(CC2CCCCC2)c2nc(-c3cc(Cl)ccc3OCc3ccccc3)cs2)cc1 [Example 160, 4-(N-(4-(2-benzyloxy-5-chlorophenyl)-2-thiazolyl)-N-cyclohexylmethylamino)benzoic acid]"
9,218 to 220 °C,"CN(Cc1ccc(C(F)(F)F)cc1)c1ccc(-c2csc(N(C)c3ccc(C(=O)O)cc3)n2)cc1 [Example 137, 4-(N-methyl-N-(4-(4-(N-methyl-N-(4-trifluoromethylbenzyl)amino)phenyl)-2-thiazolyl)amino)benzoic acid]"

# The remaining lines, values behind:
row,SMILES,melting point
1,"CC(C)N(c1ccc(C(=O)[O-])cc1)c1nc(-c2ccc(OCc3ccc(C4CCCCC4)cc3)cc2)cs1.[Na+] [Example 34, sodium 4-(N-(4-(4-(4-cyclohexylbenzyloxy)phenyl)-2-thiazolyl)-N-isopropylamino)benzoate]",230 °C (dec.)
2,"CC(C)N(c1ccc(OCC(=O)O)cc1)c1nc(-c2ccc(NC(=O)C3CCCCC3)cc2)cs1 [Example 50, (4-(N-(4-(4-(cyclohexanecarbonylamino)phenyl)-2-thiazolyl)-N-isopropylamino)phenoxy)acetic acid]",225 °C (dec.)
3,CN(Cc1ccc(C2CCCCC2)cc1)c1ccc(-c2csc(N(C)Cc3ccc(C(=O)[O-])cc3)n2)cc1.[K+],240 °C
4,"O=C(O)c1ccc(N(CCC2CCCCC2)c2nc(-c3nc4cc(OCc5ccc(Cl)c(Cl)c5)ccc4[nH]3)cs2)cc1 (as salt: hydrochloride) [Example 185, 4-(N-(2-cyclohexylethyl)-N-(4-(5-(3,4-dichlorobenzyloxy)-2-benzoimidazolyl)-2-thiazolyl)amino)benzoic acid hydrochloride]",173 to 176 °C
5,"CN(Cc1ccc([C@H]2CCC[C@@H](O)C2)cc1)c1ccc(-c2csc(N(C)Cc3ccc(C(=O)O)cc3)n2)cc1 (relative stereo) [Example 205, cis-4-((N-(4-(4-(N-(4-(3-hydroxycyclohexyl)benzyl)-N-methylamino)phenyl)-2-thiazolyl)-N-methylamino)methyl)benzoic acid]",220 °C
6,"CN(CCCc1ccccc1)c1ccc(-c2csc(N(C)Cc3ccc(C(=O)O)cc3)n2)cc1 [Example 225, 4-((N-methyl-N-(4-(4-(N-methyl-N-(3-phenylpropyl)amino)phenyl)-2-thiazolyl)amino)methyl)benzoic acid]",127 to 128 °C
7,"CC(C)N(Cc1ccc(C(=O)O)cc1)c1nc(-c2ccc(OCc3ccc(C4CCCCC4)cc3)cc2)cs1 [Example 65, 4-((N-(4-(4-(4-cyclohexylbenzyloxy)phenyl)-2-thiazolyl)-N-isopropylamino)methyl)benzoic acid]",233 to 234 °C
8,"CN(c1ccc(C(=O)O)cc1)c1nc(-c2ccc(NC(=O)c3ccc(C(C)(C)C)cc3)cc2)cs1 [Example 20, 4-(N-(4-(4-(4-tert-butylbenzoylamino)phenyl)-2-thiazolyl)-N-methylamino)benzoic acid]",250 °C (dec.)
9,"CC(C)N(Cc1cccc(-c2nnn[nH]2)c1)c1nc(-c2ccc(OCc3ccc(C4CCCCC4)cc3)cc2)cs1 [Example 80, N-(4-(4-(4-cyclohexylbenzyloxy)phenyl)-2-thiazolyl)-N-isopropyl-(3-(1H-tetrazol-5-yl)benzyl)amine]",221 to 222 °C
10,"O=C(O)c1ccc(N(CC2CCCCC2)c2nc(-c3ccc(NCc4ccc(C(F)(F)F)cc4)cc3)cs2)cc1 [Example 134, 4-(N-cyclohexylmethyl-N-(4-(4-(4-trifluoromethylbenzylamino)phenyl)-2-thiazolyl)amino)benzoic acid]",199 to 203 °C
11,"CC(C)N(c1ccc(-c2nnn[nH]2)cc1)c1nc(-c2ccc(OCc3ccc(C4CCCCC4)cc3)cc2)cs1 [Example 78, N-(4-(4-(4-cyclohexylbenzyloxy)phenyl)-2-thiazolyl)-N-isopropyl-(4-(1H-tetrazol-5-yl)phenyl)amine]",215 to 216 °C
12,"CC(C)CN(c1ccc(C(=O)O)cc1)c1nc(-c2ccc(NC(=O)c3ccccc3)cc2)cs1 [Example 15, 4-(N-(4-(4-benzoylaminophenyl)-2-thiazolyl)-N-isobutylamino)benzoic acid]",234 to 235 °C
13,"Cc1oc(=O)oc1COC(=O)c1ccc(CN(C)c2nc(-c3ccc(OCc4ccc(C5CCCCC5)cc4)cc3)cs2)cc1 [Example 273, 5-methyl-2-oxo-1,3-dioxl-4-ylmethyl 4-((N-(4-(4-(4-cyclohexylbenzyloxy)phenyl)-2-thiazolyl)-N-methylamino)methyl)benzoate]",87 to 92 °C
14,"CN(c1ccc(C(=O)O)cc1)c1nc(-c2ccc(NC(=O)c3ccc(C4CCCCC4)cc3)cc2)cs1 [Example 19, 4-(N-(4-(4-(4-cyclohexylbenzoylamino)phenyl)-2-thiazolyl)-N-methylamino)benzoic acid]",250 °C (dec.)
15,"CCN(c1ccc(C(=O)O)cc1)c1nc(-c2ccc(NC(=O)C3CCCCC3)cc2)cs1 [Example 11, 4-(N-(4-(4-(cyclohexanecarbonylamino)phenyl)-2-thiazolyl)-N-ethylamino)benzoic acid]",250 °C (dec.)
16,CC(C)N(c1ccc(C(=O)O)c(Cl)c1)c1nc(-c2ccc(NC(=O)c3ccc(N4CCOCC4)cc3)cc2)cs1.Cl,220 °C (dec.)
